Data taken from patent US20050009151A1, “Methods for the stereospecific and enantiomeric enrichment of beta-amino acids” (Pharmacia Corporation, priority 2003, published 2005).
One block for each compound: values may come before it.

How the values were obtained:
Assay type in all cases: biochemical
[1] = test system: β-aminotransferase enzyme from Variovorax paradoxus (CC-KGbPHe-I14); assay: D-β-aminotransferase keto acid substrate specificity; conditions: rate of conversion of D-β-phenylalanine to 3-keto-3-phenylpropionic acid as percent of the rate using α-ketoglutarate; 10 mg/ml α-keto acceptor, 1 hour, 37° C.
Method: Semi-purified β-aminotransferase enzyme from Variovorax paradoxus (CC-KGbPHe-I14) was assayed using D-β-phenylalanine as the amino donor, in an assay consisting of 100 mM potassium phosphate, 2 mg/ml DL-β-phenylalanine, 10 mg/ml α-keto acceptor and 0.1 mM pyridoxal phosphate, at pH 8.0. The reactions were run at 37° C. with mild stirring for 1 hour. At 1 hour reaction time, 0.1 ml samples were withdrawn, acidified with addition of 0.1 ml 0.1N HCl, and centrifuged. The supernatant solution was collected into HPLC sample vials. Conversion of DL-β-phenylalanine to 3-keto-3-phenylpropionate was quantified using reverse phase HPLC. The following keto acids were screened for activity: α-ketoglutaric acid, oxaloacetic acid, pyruvic acid, 3-oxoadipic acid, 2-oxoadipic acid, 1,3-acetonedicarboxylic acid, and 4-ketopimelic acid. The relative rates of conversion of D-β-phenylalanine to 3-keto-3-phenylpropionic acid using the various keto acceptors is reported as percent of the rate using α-ketoglutarate, the experimentally determined preferred acceptor.

[2] = test system: β-aminotransferase enzyme from Variovorax paradoxus; assay: D-β-aminotransferase amino donor specificity; conditions: for substrate for the enzyme (amino donor): 2 mg/ml amino donor, 10 mg/ml α-ketoglutarate, 1 hour, 37° C.
Method: The same preparation of semi-purified β-aminotransferase enzyme from Variovorax paradoxus was then assayed using a-ketoglutarate as the keto acceptor, in an assay consisting of 100 mM potassium phosphate, 10 mg/ml α-ketoglutarate, 2 mg/ml amino donor and 0.1 mM pyridoxal phosphate, at pH 8.0. The reactions were run at 37° C. with mild stirring for 1 hour. At 1 hour reaction time, 0.1 ml samples were withdrawn, acidified with addition of 0.1 ml 0.1N HCl, and centrifuged. The supernatant solution was collected into HPLC sample vials. Conversion of an amino acid to the corresponding ketone was quantified using reverse phase HPLC. The following amino acids (as an amino donor) were screened for activity: α-(D)-phenylalanine, α-(L)-phenylalanine, β-(D)-phenylalanine, β-(L)-phenylalanine, (D)-3-amino-5-phenylpentanoic acid, and (L)-3-amino-5-phenylpentantoic acid.

[3] = test system: Variovorax paradoxus β-aminotransferase; assay: Synthesis of β-amino acid from β-keto acid with Variovorax paradoxus β-aminotransferase
Method: (§1) A buffer consisting of 0.3M Tricine, 15 mM MgSO4, enough pyridoxal phosphate to impart a pale yellow color and 0.3M sodium glutamate (for deamination reactions) or 0.3 M 2-ketoglutarate monopotassium salt (for synthesis reactions) was prepared.
(§2) One part buffer was combined with two parts lysate and this mixture was then added to pre-weighed substrate to give a concentration of 1 mg/ml substrate. Reactions were typically run at 1 ml scale with gentle shaking at 26° C.
(§3) 10 ul of 2N HCl was added to a plastic screw capped vial and 90ul of sample was then added. The pH of the mixture confirmed to be below 4 and the mixture was centrifuged in a microcentrifuge at maximum speed for about 2 minutes to remove precipitated materials.
(§4) Samples were derivatized using Marfey's reagent, N•-(2,4-dinitro-5-fluorophenyl)-L-alaninamide. A stock solution of 10 mg/mL in acetone of this reagent was prepared. Either 20 or 40 ul of bioconversion sample was added to 20 ul 1.3 M KHCO3. To this was added 80 ul of the stock reagent solution, the vial sealed tightly, and heated at 70° C. for 10 minutes. As needed, after cooling to room temperature, the heated samples were centrifuged to remove solids. The supernatants were analyzed using an Eclipse XDB-C8 column, 4.6×150 mm, eluting with methanol gradient in water, from 50% methanol to 100% methanol. Both solvents were acidified with 0.1% trifluoroacetic acid.
For synthesis experiments, in which β-keto acid was converted to β-amino acid, the area of the peak(s) was compared to a standard curve derived for β-phenylalanine.

[4] = test system: Variovorax paradoxus β-aminotransferase; assay: Resolution of substrates with Variovorax paradoxus β-aminotransferase
Method: […] Reactions were typically run at 1 ml scale with gentle shaking at 26° C.
as §3, §4
(§5) For resolution experiments, the area of the peak consumed (converted to keto acid) was compared to the area remaining of the unconsumed peak, on the assumption that none was converted.

[5] = test system: β-aminotransferase from Alcaligenes eutrophus; assay: Resolution of substrates with cell lysate from Alcaligenes eutrophus
Method: as §1, §2, §3, §4, §5

[6] = test system: Alcaligenes eutrophus L-β-aminotransferase; assay: Substrate specificity of Alcaligenes eutrophus L-β-aminotransferase (crude cell homogenate); conditions: for MSB Culture Extract D(S)-b-Phe consumed at t = 1 Hr / MSB Culture Extract L(R)-b-Phe consumed at t = 1 Hr: cells grown in MSB; for MSB Culture Extract D(S)-b-Phe consumed at t = 1 Hr / MSB Culture Extract L(R)-b-Phe consumed at t = 1 Hr / NB Culture Extract of Alcaligenes eutrophus D(S)-b-Phe consumed at t = 1 Hr / NB Culture Extract of Alcaligenes eutrophus L(R)-b-Phe consumed at t = 1 Hr: keto acceptor with or without PLP as labelled; for NB Culture Extract of Alcaligenes eutrophus D(S)-b-Phe consumed at t = 1 Hr / NB Culture Extract of Alcaligenes eutrophus L(R)-b-Phe consumed at t = 1 Hr: cells grown in NB
Method: Cell-free homogenates were used in assays designed to determine substrate specificity. The assays contained: 0.1-0.3 mg/ml protein, 10 mg/ml keto acceptor, 1 mg/ml amino donor, 0.1 mM pyridoxal phosphate, and 100 mM potassium phosphate, at pH 8.0. The reactions were run at 37° C. with gentle stirring for 1 hour. At 1 hour reaction time, 0.1 ml samples were withdrawn, acidified with addition of 0.1 ml 0.1N HCl, and centrifuged. The supernatant solution was collected into HPLC sample vials. Conversion of amino acid to the corresponding ketone was quantified using reverse phase HPLC. Enzymatic activity was measured as the rate of conversion of amino donor in a one hour period. In a series of reactions, the enzymatic activity was determined with the following variables: inclusion or omission of pyridoxal phosphate, using α-ketoglutarate or pyruvate as a keto acceptor, and (D)- or (L)-β-phenylalanine as amino donor.

[7] = sodium sulfate purified β-aminotransferase, 3 hours

Relative Activity [1]: 6%
SMILES: O=C(O)CCC(=O)CC(=O)O [3-Oxoadipic Acid]

Relative Activity [1]: 0.6%
SMILES: O=C(O)CCCC(=O)C(=O)O [2-Oxoadipic Acid]

SMILES: N[C@@H](Cc1ccccc1)C(=O)O [α-(L)-phenylalanine]
substrate for the enzyme (amino donor) [2]: Only β-(D)-phenylalanine and (D)-3-amino-5-phenylpenantoic acid were substrates

product stereoisomer peak observed ([3]; cell lysate, 19 hours): only later eluting peak was observed
3-aminohexanoic acid formed, using beta-phenylalanine as standard ([3]; cell lysate, approximately 50 mM substrate, approximately 60 mM glutamic acid, 19 hours): approximately 1 mg/mL
SMILES: CCCC(=O)CC(=O)O [3-Oxohexanoic acid]

SMILES: NC(CC(=O)O)C1CCCCC1 (stereo not drawn) [3-amino-3-cyclohexylpropanoic acid]
Peak consumption (later eluting peak) ([4]; cell lysate, 2 hours): >99%

substrate for the enzyme (amino donor) [2]: substrates for the enzyme
preference of the enzyme for the enantiomer ([2]; enzyme preferring α-ketoglutarate as amino acceptor, no activity on the L-enantiomer): 100%
SMILES: N[C@@H](CC(=O)O)c1ccccc1 [β-(D)-phenylalanine, D- or (S)-3-amino-3-phenylpropionic acid]

SMILES: NC(CC(=O)O)C1CC1 (stereo not drawn) [3-amino-3-cyclopropylpropanoic acid]
early eluting peak observed ([4]; cell lysate, 0.225 M substrate, 0.45 M alpha-ketoglutarate, pH 8.1, 18.2 hours): 99.5%
Peak consumption (later eluting peak) ([4]; cell lysate, 22 hours): 98%
Peak consumption (earlier eluting peak) ([5]; 22 hours): approximately 42%
Peak consumption (earlier eluting peak) ([5]; 22 hours, listed as 3-amino-3-cyclopropyl propanoic acid): 42%

SMILES: N[C@H](Cc1ccccc1)C(=O)O [α-(D)-phenylalanine]
substrate for the enzyme (amino donor) [2]: Only β-(D)-phenylalanine and (D)-3-amino-5-phenylpenantoic acid were substrates

Relative Activity [1]: 0%
SMILES: O=C(O)CC(=O)CC(=O)O [1,3-Acetonedicarboxylic Acid]

SMILES: CCCC(N)CC(=O)O (stereo not drawn) [3-aminohexanoic acid]
Peak consumption (later eluting peak) ([4]; cell lysate, 1 hour): >99%

Peak consumption (later eluting peak) ([4]; cell lysate, 5 hours): 98%
SMILES: NC(CC(=O)O)c1cc2ccccc2o1 (stereo not drawn) [3-amino-3-(2-benzofuryl))propanoic acid]

SMILES: NC(CC(=O)O)c1ccsc1 (stereo not drawn) [3-amino-3-(3-thienyl)propanoic acid]
Peak consumption (earlier eluting peak) ([5]; 21 hours): 82%
Peak consumption (earlier eluting peak) ([5]; 22 hours): 82%

Peak consumption (later eluting peak(s)) ([4]; cell lysate, 19 hours): >99%
SMILES: NC1CCCCC1C(=O)O (stereo not drawn) [2-aminocyclohexanecarboxylic acid]

Peak consumption (later eluting peak) ([4]; cell lysate, 5 hours): >95%
SMILES: NC(CC(=O)O)c1cccnc1 (stereo not drawn) [3-amino-3-(3-pyridyl)propanoic acid]

SMILES: N[C@@H](CCc1ccccc1)CC(=O)O [(L)-3-amino-5-phenylpentantoic acid, L- or (S)-3-amino-5-phenyl-pentanoic acid]
substrate for the enzyme (amino donor) [2]: Only β-(D)-phenylalanine and (D)-3-amino-5-phenylpenantoic acid were substrates

substrate for the enzyme (amino donor) [2]: substrates for the enzyme
SMILES: N[C@H](CCc1ccccc1)CC(=O)O [(D)-3-amino-5-phenylpenantoic acid, D- or (R)-3-amino-5-phenyl-pentanoic acid]

SMILES: N[C@H](CC(=O)O)c1ccccc1 [β-(L)-phenylalanine, L- or (R)-3-amino-3-phenylpropionic acid]
preference of the enzyme for the enantiomer ([6]; enzyme preferring pyruvic acid as amino acceptor, no activity on the D-enantiomer): 100%
substrate for the enzyme (amino donor) [2]: Only β-(D)-phenylalanine and (D)-3-amino-5-phenylpenantoic acid were substrates

product stereoisomer peak observed [3, 7]: only later eluting peak was observed
β-amino acid formed, using β-phenylalanine as standard [3, 7]: approximately 0.02 mg/mL
SMILES: O=C(O)C(=O)Cc1ccccc1F [o-fluoro-phenyl-2-oxopropanoic acid]

Peak consumption (later eluting peak) ([4]; cell lysate, 23 hours): 82%
SMILES: N[C@H](CC(=O)O)c1ccc(F)cc1 [p-fluoro-β-phenylalanine]

Peak consumption (later eluting peak) ([4]; cell lysate, 23 hours): 80%
SMILES: COc1ccc([C@H](N)CC(=O)O)cc1 [p-methoxy-β-phenylalanine]

Peak consumption (later eluting peak) ([4]; cell lysate, 5 hours): 58%
SMILES: NC(CC(=O)O)c1ccc(Oc2ccccc2)cc1 (stereo not drawn) [3-amino-3-(4-phenoxyphenyl)propanoic acid]

Peak consumption (later eluting peak) ([4]; sodium sulfate purified beta-aminotransferase, 30 minutes): 98%
Peak consumption (later eluting peak) ([4]; sodium sulfate purified beta-aminotransferase, 30 minutes, listed as p-nitro-α-phenylalanine): approximately 98%
later eluting peak remaining ([4]; sodium sulfate purified beta-aminotransferase, after 1 hour): not detected
change in the concentration of the early eluting stereoisomer ([4]; sodium sulfate purified beta-aminotransferase, after 18 hours): no detectable change
SMILES: N[C@H](CC(=O)O)c1ccc([N+](=O)[O-])cc1 [p-nitro-β-phenylalanine]

SMILES: CC(C)C(N)CC(=O)O (stereo not drawn) [3-amino-4-methylpentanoic acid]
Peak consumption (later eluting peak) ([4]; cell lysate, 48 hours): 65%
Peak consumption (later eluting peak) ([4]; cell lysate, 48 hours, listed as 3-amino-4-methylpentanoic): 65%

Relative Activity [1]: 0%
SMILES: O=C(O)CCC(=O)CCC(=O)O [4-Ketopimelic Acid]

Relative Activity [1]: 54%
SMILES: O=C(O)CC(=O)C(=O)O [Oxaloacetic Acid]

SMILES: NC(CC(=O)O)c1ccco1 (stereo not drawn) [3-amino-3-(2-furyl)propanoic acid]
Peak consumption (earlier eluting peak) ([5]; 21 hours): 73%
Peak consumption (earlier eluting peak) ([5]; 21 hours, listed as 3-amino-3-(2-furyl) propanoic acid): 73%

Peak consumption (later eluting peak) ([4]; cell lysate, 5 hours): >99%
Peak consumption (later eluting peak) ([4]; cell lysate, 23 hours): 82%
SMILES: N[C@H](CC(=O)O)c1ccccc1 (racemic) [β-phenylalanine]
change in the concentration of the later eluting stereoisomer ([5]; after one day): no detectable change
earlier eluting peak remaining ([5]; after one day): not detectable

SMILES: O=C(O)CCC(=O)C(=O)O [α-ketoglutarate]
MSB Culture Extract D(S)-b-Phe consumed at t = 1 Hr [6]: 0.966
MSB Culture Extract L(R)-b-Phe consumed at t = 1 Hr [6]: 6.9281
NB Culture Extract of Alcaligenes eutrophus D(S)-b-Phe consumed at t = 1 Hr [6]: 0.00
NB Culture Extract of Alcaligenes eutrophus L(R)-b-Phe consumed at t = 1 Hr [6]: 3.41
Relative Activity [1]: 100%

Relative Activity [1]: 14%
SMILES: CC(=O)C(=O)O [Pyruvic Acid]
MSB Culture Extract D(S)-b-Phe consumed at t = 1 Hr [6]: 7.789
MSB Culture Extract L(R)-b-Phe consumed at t = 1 Hr [6]: 45.1865
NB Culture Extract of Alcaligenes eutrophus D(S)-b-Phe consumed at t = 1 Hr [6]: 3.37
NB Culture Extract of Alcaligenes eutrophus L(R)-b-Phe consumed at t = 1 Hr [6]: 48.61

Peak consumption (later eluting peak) ([4]; cell lysate, 5 hours): 50%
SMILES: NC(CC(=O)O)c1ccc2ccccc2c1 (stereo not drawn) [3-amino-3-(2-naphthyl)propanoic acid]

Peak consumption (later eluting peak) ([4]; cell lysate, 67 hours): 99%
Peak consumption (later eluting peak) ([4]; cell lysate, 67 hours, listed as o-fluoro-α-phenylalanine): 99%
SMILES: N[C@H](CC(=O)O)c1ccccc1F [o-fluoro-β-phenylalanine]

Peak consumption (later eluting peak) ([4]; cell lysate, 23 hours): 95%
SMILES: N[C@H](CC(=O)O)c1cccc([N+](=O)[O-])c1 [m-nitro-β-phenylalanine]
